Measurements from article PMC3113977, “Structural characteristics and antiviral activity of multiple peptides derived from MDV glycoproteins B and H” (Virology Journal, 2011).
Where a SMILES comes first, the peptide text is derived from it.

Columns and labels:
[1] = Gel filtration (GF) analysis of oligomeric state; format: physicochemical; conditions: for MW of polymer (GF peak molecular mass): Superdex G75, 20 mM Tris-HCl pH 8.0, estimated against protein standards; for Oligomeric state: aqueous solution, Superdex G75, 20 mM Tris-HCl pH 8.0, GF peak mass versus MS monomer mass
Method: Figure 5 GF results and structural analyses of five peptides. (top) GF analysis of peptides. The purified peptides were loaded onto the Superdex G75 column in a buffer solution of 20 mM Tris-HCl, pH 8.0. The peak molecular mass was estimated by comparison with the protein standards running on the same column. The clear peak of gHH1 occurred at about 12.1 kDa. This molecular mass matches the approximate sum of four molecules, indicating the formation of the homotetrameric structure. The peak of gHH2 occurred at about 7.2 kDa, indicating the formation of the homodimeric structure. The peak of gHH3 occurred at about 3.8 kDa, indicating the monomeric state. The peak of gHH5 occurred at about 9.1 kDa, indicating the formation of the homotrimeric structure. The peak of gBH1 occurred at about 10.7 kDa, indicating the formation of the homotrimeric structure. (bottom) Sequences and calculated oligomeric states of gHH1, gHH2, gHH3, gHH5, and gBH1 in aqueous solution. TEXT PRINTED IN THE PICTURE: gHH1: MW of monomer: 3184 Da; MW of polymer: 12.1 kDa; Oligomeric state: 4 (tetramer) | gHH2: MW of monomer: 3623 Da; MW of polymer: 7.2 kDa; Oligomeric state: 2 (dimer) | gHH3: MW of monomer: 3795 Da; MW of polymer: 3.8 kDa; Oligomeric state: 1 (monomer) | gHH5: MW of monomer: 3002 Da; MW of polymer: 9.1 kDa; Oligomeric state: 3 (trimer) | gBH1: MW of monomer: 3303 Da; MW of polymer: 10.7 kDa; Oligomeric state: 3 (trimer)
The purified cleaved peptides were loaded onto the Superdex G75 column in a solution buffer of 20 mM Tris-HCl, pH 8.0. The peak molecular mass was estimated by comparison with protein standards running on the same column. The peak fractions were collected and analysed by 15% SDS-PAGE. The analytical column was calibrated using a series of individual runs of standard molecular mass proteins as markers including bovine serum albumin (68 kDa), egg white albumin (43 kDa), […] (13.7 kDa), aprotinin (6.5 kDa), antimicrobial peptides (5 kDa), and vitamin B12 (1.4 kDa).

MDV [2] = format: cell-based, Marek's disease virus (MDV) strain RB1B
MDV [3] = system: MDV; design: species or system Marek's disease virus (MDV) strain RB1B; conditions: in vivo

## CC[C@H](C)[C@H](NC(=O)[C@H](C)NC(=O)[C@H](C)NC(=O)[C@H](CCC(=O)O)NC(=O)[C@H](C)NC(=O)[C@H](CCC(=O)O)NC(=O)[C@H](CCCNC(=N)N)NC(=O)[C@H](CCCCN)NC(=O)[C@@H](NC(=O)[C@H](CS)NC(=O)[C@H](CCC(N)=O)NC(=O)CNC(=O)[C@H](CC(C)C)NC(=O)[C@@H](NC(=O)[C@@H](NC(=O)[C@@H](N)CCCNC(=N)N)[C@@H](C)CC)[C@@H](C)CC)[C@@H](C)CC)C(=O)N[C@@H](CCC(=O)O)C(=O)N[C@@H](CCC(N)=O)C(=O)N[C@H](C(=O)N[C@@H](Cc1ccccc1)C(=O)N[C@@H](CCCNC(=N)N)C(=O)N[C@H](C(=O)N[C@@H](CCCCN)C(=O)N[C@@H](Cc1ccc(O)cc1)C(=O)N[C@@H](CC(N)=O)C(=O)N[C@@H](CC(=O)O)C(=O)N[C@@H](CO)C(=O)N[C@@H](Cc1c[nH]cn1)C(=O)O)[C@@H](C)O)[C@@H](C)CC [gBH1]
[1]
  MW of polymer (GF peak molecular mass): 10.7 kDa
  Oligomeric state: 3
MDV [2]
  plaque formation: ~12%
MDV [3]
  lesion formation on CAMs (words): significantly able to reduce lesion formation

## CC[C@H](C)[C@H](NC(=O)[C@H](CCC(=O)O)NC(=O)[C@H](CCSC)NC(=O)[C@H](CC(=O)O)NC(=O)[C@H](CO)NC(=O)[C@H](C)NC(=O)[C@H](CC(N)=O)NC(=O)[C@H](CCSC)NC(=O)[C@@H](N)Cc1c[nH]cn1)C(=O)N[C@@H](CCCCN)C(=O)N[C@@H](CO)C(=O)N[C@@H](Cc1ccc(O)cc1)C(=O)N[C@H](C(=O)N[C@@H](CC(N)=O)C(=O)N[C@@H](CCSC)C(=O)N[C@H](C(=O)N[C@@H](CCC(=O)O)C(=O)N[C@@H](CO)C(=O)N[C@H](C(=O)N[C@@H](CCC(=O)O)C(=O)N[C@@H](CCC(=O)O)C(=O)N[C@@H](CO)C(=O)N[C@@H](CO)C(=O)N[C@@H](CC(N)=O)C(=O)N[C@@H](Cc1ccc(O)cc1)C(=O)N[C@@H](CC(=O)O)C(=O)N[C@@H](Cc1ccccc1)C(=O)O)C(C)C)[C@@H](C)CC)[C@@H](C)CC [gHH1] (H-HMNASDMEIKSYINMIESVEESSNYDF-OH; N-terminus and C-terminus assumed)
[1]
  MW of polymer (GF peak molecular mass): 12.1 kDa
  Oligomeric state: 4
MDV [2]
  inhibition of plaque formation: 100%
  plaque formation: completely inhibited
MDV [3]
  lesion formation on CAMs: completely inhibited
  lesion formation on CAMs (words): significantly able to reduce lesion formation

## CC[C@H](C)[C@H](NC(=O)[C@H](Cc1ccc(O)cc1)NC(=O)CNC(=O)[C@H](CO)NC(=O)[C@H](CCC(N)=O)NC(=O)[C@H](Cc1ccccc1)NC(=O)[C@H](C)NC(=O)[C@H](CC(N)=O)NC(=O)[C@H](CCCNC(=N)N)NC(=O)[C@@H](NC(=O)[C@H](CO)NC(=O)[C@H](C)NC(=O)[C@@H](NC(=O)[C@H](CC(C)C)NC(=O)[C@H](CO)NC(=O)[C@H](CCSC)NC(=O)[C@H](Cc1ccccc1)NC(=O)[C@H](CC(C)C)NC(=O)[C@H](CCCNC(=N)N)NC(=O)[C@@H](NC(=O)[C@@H](NC(=O)[C@@H](NC(=O)[C@@H](N)C(C)C)C(C)C)[C@@H](C)O)[C@@H](C)O)C(C)C)C(C)C)C(=O)N[C@@H](CO)C(=O)N[C@@H](Cc1ccccc1)C(=O)N[C@@H](CC(=O)O)C(=O)N[C@@H](CCC(=O)O)C(=O)N[C@H](C(=O)N[C@H](C(=O)N[C@@H](CCCCN)C(=O)N[C@H](C(=O)N[C@@H](CCC(=O)O)C(=O)O)[C@@H](C)O)[C@@H](C)CC)[C@@H](C)CC [gHH2] (H-VVTTRLFMSLVASVRNAFQSGYISFDEIIKTE-OH; N-terminus and C-terminus assumed)
[1]
  MW of polymer (GF peak molecular mass): 7.2 kDa
  Oligomeric state: 2
MDV [2]
  plaque formation (result in words): completely inhibited
MDV [3]
  lesion formation on CAMs (words): significantly able to reduce lesion formation

## CC[C@H](C)[C@H](NC(=O)[C@H](CO)NC(=O)[C@H](CC(C)C)NC(=O)[C@H](CO)NC(=O)[C@H](C)NC(=O)[C@@H](NC(=O)[C@H](CC(N)=O)NC(=O)[C@H](CCCCN)NC(=O)[C@H](CO)NC(=O)[C@H](C)NC(=O)[C@H](CC(N)=O)NC(=O)[C@@H](NC(=O)[C@@H](NC(=O)[C@@H](NC(=O)[C@H](CCCCN)NC(=O)[C@H](CCCNC(=N)N)NC(=O)[C@@H](NC(=O)[C@H](CC(C)C)NC(=O)[C@H](CO)NC(=O)[C@H](CCCCN)NC(=O)[C@@H](NC(=O)[C@@H](NC(=O)[C@H](CC(=O)O)NC(=O)[C@H](C)NC(=O)[C@@H](N)CC(N)=O)[C@@H](C)CC)[C@@H](C)CC)[C@@H](C)CC)[C@@H](C)O)[C@@H](C)CC)[C@@H](C)CC)[C@@H](C)O)C(=O)N[C@@H](CC(C)C)C(=O)N[C@@H](CCC(N)=O)C(=O)N[C@@H](Cc1c[nH]cn1)C(=O)N[C@@H](CC(C)C)C(=O)N[C@@H](Cc1ccc(O)cc1)C(=O)N[C@H](C(=O)N[C@@H](CC(C)C)C(=O)N[C@@H](CCCNC(=N)N)C(=O)N[C@@H](CO)C(=O)O)C(C)C [gHH3] (H-NADIIKSLIRKTIINASKNTASLSILQHLYVLRS-OH; N-terminus and C-terminus assumed)
[1]
  MW of polymer (GF peak molecular mass): 3.8 kDa
  Oligomeric state: 1
MDV [2]
  plaque formation: ~20%
MDV [3]
  lesion formation on CAMs (words): significantly able to reduce lesion formation

## CC[C@H](C)[C@H](NC(=O)[C@H](CCCCN)NC(=O)[C@@H](NC(=O)[C@H](Cc1ccc(O)cc1)NC(=O)[C@H](CCSC)NC(=O)[C@H](CCC(=O)O)NC(=O)[C@H](CCC(N)=O)NC(=O)[C@@H](NC(=O)[C@@H](NC(=O)[C@H](CC(C)C)NC(=O)[C@H](CCC(=O)O)NC(=O)[C@@H](NC(=O)[C@H](C)NC(=O)[C@@H](NC(=O)[C@@H](NC(=O)[C@H](Cc1c[nH]cn1)NC(=O)[C@H](CCC(=O)O)NC(=O)[C@H](CCC(=O)O)NC(=O)[C@@H](NC(=O)[C@@H](N)CS)[C@@H](C)O)[C@@H](C)CC)C(C)C)[C@@H](C)O)C(C)C)[C@@H](C)CC)[C@@H](C)CC)C(=O)N[C@@H](CC(N)=O)C(=O)N[C@H](C(=O)N[C@@H](CCCCN)C(=O)N[C@@H](CC(N)=O)C(=O)N[C@@H](CO)C(=O)N1CCC[C@H]1C(=O)O)C(C)C [gHH5] (H-CTEEHIVATELVIQEMYIKINVKNSP-OH; N-terminus and C-terminus assumed)
[1]
  MW of polymer (GF peak molecular mass): 9.1 kDa
  Oligomeric state: 3
MDV [2]
  plaque formation: ~13%
MDV [3]
  lesion formation on CAMs (words): significantly able to reduce lesion formation
